# Like-named read-outs stand apart in the source and are kept apart here.
# Experiment: Phase 1 Part A food effect (high-fat / low-fat breakfast) on single-dose pharmacokinetics
# Assay type: in vivo, human
# Settings: for Test/Reference ratio of LS means, AUC0-t / Test/Reference ratio of LS means, AUC0-∞ / Test/Reference ratio of LS means, Cmax: 400 mg Fed; for % AUCextrap: arithmetic mean; for Tmax / AUC(0-t) / AUC(0-inf) / Cmax / Vd/F / half-life: human, plasma, oral
# Text: This study was a randomized, blinded, placebo-controlled, ascending-dose study to evaluate the safety, tolerability, and pharmacokinetic (PK) of single (Part A) and multiple (Part B) doses of Compound I in healthy subjects. In addition, the effects of a standard high-fat breakfast, standard low-fat breakfast, and pretreatment and co-administration of a proton pump inhibitor (PPI) on the tolerability and PK of a single dose of Compound I were investigated in 2 groups in Part A. All subjects received their full dose of Compound I, administered as the appropriate number of either 25 or 200 mg tablets. The high fat breakfast comprised the following: total energy: 895 kcal; total fat: 61 g; total protein: 41 g; total carbohydrate: 46 g. The low fat breakfast comprised the following: total energy: 611 kcal; total fat: 14.7 g; total protein: 20.3 g; total carbohydrate: 106.3 g.
# For Group A4, doses (400 mg Compound I or placebo) during Treatment Period 1 were administered in a fasted state on the morning of Day 1. Doses in Treatment Period 2 were administered 30 minutes after starting, and within approximately 10 minutes of completing, a high-fat standard breakfast on the morning of Day 1. Doses during Treatment Period 3 were administered 30 minutes after starting, and within approximately 10 minutes of completing a low-fat standard meal on the morning of Day 1. Doses during Treatment Period 4 were administered on Day 1 after an overnight fast and following administration of a PPI (rabeprazole 20 mg) for 3 days (given as 3 daily [QD] doses, with the final PPI dose at 2 hours prior to study drug administration on Day 1). Subjects in Group A4 received the same Compound I or placebo treatment in all treatment periods, such that each subject received up to 4 single doses of Compound I or placebo.
# For Group A5, doses (800 mg Compound I or placebo) during Treatment Period 1 were administered in a fasted state on the morning of Day 1, doses during Treatment Period 2 were administered 30 minutes after starting a low-fat standard breakfast on the morning of Day 1, and doses during Treatment Period 3 were administered on Day 1 after a low-fat meal and following administration of a PPI (rabeprazole 20 mg) for 3 days (given as 3 QD doses, with the final PPI dose at 2 hours prior to study drug administration on Day 1). Subjects in Group A5 received the same Compound I or placebo treatment in all treatment periods, such that each subject received up to 3 single doses of Compound I or placebo.
# For Group A4, each subject participated in 3 additional treatment periods, each separated by a minimum of 7 days. Group A4 resided at the CRU from Day −1 to Day 4 of Treatment Periods 2, 3, and 4. For Group A5, each subject participated in 2 additional treatment periods, each separated by a minimum of 7 days. Group A5 resided at the CRU from Day −1 to Day 4 of Treatment Periods 2 and 3. All subjects returned for a Follow-up visit between 5 to 14 days after their final dose of study treatment.
# In Part A, all doses in Treatment Period 1 were administered after an overnight fast of at least 8 hours. For the A4 cohort, in Treatment Periods 2 and 3, doses were administered 30 minutes after starting and approximately 10 minutes after completing a high- or low-fat breakfast. In Treatment Period 4, the dose was administered after an overnight fast and following administration of a PPI (PPI was comprised of 3 doses of rabeprazole 20 mg, starting on Day −2 and with the final dose 2 hours before Compound I administration on Day 1). For Group A5, doses during Treatment Period 2 were administered 30 minutes after starting and approximately 10 minutes after completing a low-fat standard breakfast on the morning of Day 1, and doses during Treatment Period 3 were administered on Day 1 after a low-fat meal and following administration of a PPI for 3 days (given as 3 QD doses, with the final PPI dose at 2 hours prior to study drug administration on Day 1).
# [1] = High-fat (Test) vs 400 mg Fasted (Reference)
# [2] = High-fat (Test) vs 400 mg Fed, Low-fat (Reference)
# [3] = Low-fat (Test) vs 400 mg Fasted (Reference)
# [4] = 400 mg single dose (A4), Fed, High-fat
# [5] = 400 mg single dose (A4), Fed, Low-fat
# [6] = 800 mg single dose (A5), Fed, Low-fat
# [7] = 800 mg, low-fat fed state vs fasted
# [8] = Table 3, 4th section, Low-fat (Test) vs 400 mg Fasted (Reference), n = 6
# [9] = high-fat fed state from the fasted state
structure (smiles),measurement,setting,value
Cn1cc(-c2cn(-c3ccc(OC(F)(F)F)cc3)c(=O)c3ncn(C)c23)cn1 [Compound I],"Test/Reference ratio of LS means, AUC0-t",[1],149.0%
same,"Test/Reference ratio of LS means, AUC0-∞",[1],145.8%
same,"Test/Reference ratio of LS means, Cmax",[1],168.9%
same,"Test/Reference ratio of LS means, AUC0-t",[2],108.7%
same,"Test/Reference ratio of LS means, AUC0-∞",[2],108.2%
same,"Test/Reference ratio of LS means, Cmax",[2],102.7%
same,"Test/Reference ratio of LS means, AUC0-t",[3],137.1%
same,"Test/Reference ratio of LS means, AUC0-∞",[3],134.7%
same,"Test/Reference ratio of LS means, Cmax",[3],164.4%
same,AUC0-t (norm),[4],14000 (hr*ng/mL)/(mg/kg)
same,AUC0-∞ (norm),[4],14100 (hr*ng/mL)/(mg/kg)
same,CL/F,[4],83.0 mL/min
same,CL/F(norm),[4],1.19 (mL/min)/kg
same,Cmax (norm),[4],1330 ng/mL/mg/kg
same,λZ,[4],0.0861 h⁻¹
same,% AUCextrap,[4],0.213%
same,AUC0-t (norm),[5],12900 (hr*ng/mL)/(mg/kg)
same,AUC0-∞ (norm),[5],13000 (hr*ng/mL)/(mg/kg)
same,CL/F,[5],89.8 mL/min
same,CL/F(norm),[5],1.28 (mL/min)/kg
same,Cmax (norm),[5],1300 ng/mL/mg/kg
same,λZ,[5],0.0852 h⁻¹
same,% AUCextrap,[5],0.691%
same,AUC0-t (norm),[6],14300 (hr*ng/mL)/(mg/kg)
same,AUC0-∞ (norm),[6],14400 (hr*ng/mL)/(mg/kg)
same,CL/F,[6],83.3 mL/min
same,CL/F(norm),[6],1.16 (mL/min)/kg
same,Cmax (norm),[6],1200 ng/mL/mg/kg
same,λZ,[6],0.0793 h⁻¹
same,% AUCextrap,[6],0.395%
same,"Ratio of fed to fasted, AUC0-t",[7],214.0%
same,"Ratio of fed to fasted, AUC0-∞",[7],203.3%
same,"Ratio of fed to fasted, Cmax",[7],225.5%
same,"Test/Reference ratio of LS means, AUC0-t",[8],214.0%
same,"Test/Reference ratio of LS means, AUC0-∞",[8],203.3%
same,"Test/Reference ratio of LS means, Cmax",[8],225.5%
same,Food effect on bioavailability,administration with food (high fat or low fat meal),positive food effect
same,Increase in AUC0-t,[9],49.0%
same,Increase in AUC0-∞,[9],45.8%
same,Increase in Cmax,[9],68.9%
same,Tmax,"400 mg, 400 mg single dose (A4), Fed, High-fat, median, read-out: tmax",3.5 h
same,AUC(0-t),"400 mg, 400 mg single dose (A4), Fed, High-fat, read-out: AUC0-t",80200 ng·h/mL
same,AUC(0-inf),"400 mg, 400 mg single dose (A4), Fed, High-fat, read-out: AUC0-∞",80300 ng·h/mL
same,Cmax,"400 mg, 400 mg single dose (A4), Fed, High-fat, read-out: Cmax",7620 ng/mL
same,Vd/F,"400 mg, 400 mg single dose (A4), Fed, High-fat, read-out: Vz/F",57.8 L
same,Vd/F,"400 mg, 400 mg single dose (A4), Fed, High-fat, read-out: Vz/F(norm)",0.826 L/kg
same,half-life,"400 mg, 400 mg single dose (A4), Fed, High-fat, read-out: t1/2 (converted)",8.05 h
same,Tmax,"400 mg, 400 mg single dose (A4), Fed, Low-fat, median, read-out: tmax",2.5 h
same,AUC(0-t),"400 mg, 400 mg single dose (A4), Fed, Low-fat, read-out: AUC0-t",73700 ng·h/mL
same,AUC(0-inf),"400 mg, 400 mg single dose (A4), Fed, Low-fat, read-out: AUC0-∞",74200 ng·h/mL
same,Cmax,"400 mg, 400 mg single dose (A4), Fed, Low-fat, read-out: Cmax",7420 ng/mL
same,Vd/F,"400 mg, 400 mg single dose (A4), Fed, Low-fat, read-out: Vz/F",63.3 L
same,Vd/F,"400 mg, 400 mg single dose (A4), Fed, Low-fat, read-out: Vz/F(norm)",0.904 L/kg
same,half-life,"400 mg, 400 mg single dose (A4), Fed, Low-fat, read-out: t1/2 (converted)",7.52 h
same,AUC(0-t),"400 mg, Table 3, 4th section, 400 mg Compound I Fasted, n = 6, read-out: LS Means AUC0-t (Reference)",74500 ng·h/mL
same,AUC(0-inf),"400 mg, Table 3, 4th section, 400 mg Compound I Fasted, n = 6, read-out: LS Means AUC0-∞ (Reference)",78700 ng·h/mL
same,Cmax,"400 mg, Table 3, 4th section, 400 mg Compound I Fasted, n = 6, read-out: LS Means Cmax (Reference)",5910 ng/mL
same,Cmax,"400 mg, Table 3, 4th section, 400 mg Compound I Fed, Low-fat, n = 6, read-out: LS Means Cmax (Test)",13300 ng/mL
same,AUC(0-t),"400 mg, Table 3, 4th section, head as printed:, n = 6, read-out: LS Means AUC0-t (Test)",159000 ng·h/mL
same,AUC(0-inf),"400 mg, Table 3, 4th section, head as printed:, n = 6, read-out: LS Means AUC0-∞ (Test)",160000 ng·h/mL
same,Tmax,"400 mg, high-fat fed state, read-out: tmax values, range",1.5 to 6 h
same,Tmax,"800 mg, 800 mg single dose (A5), Fed, Low-fat, median, read-out: tmax",3 h
same,AUC(0-t),"800 mg, 800 mg single dose (A5), Fed, Low-fat, read-out: AUC0-t",159000 ng·h/mL
same,AUC(0-inf),"800 mg, 800 mg single dose (A5), Fed, Low-fat, read-out: AUC0-∞",160000 ng·h/mL
same,Cmax,"800 mg, 800 mg single dose (A5), Fed, Low-fat, read-out: Cmax",13300 ng/mL
same,Vd/F,"800 mg, 800 mg single dose (A5), Fed, Low-fat, read-out: Vz/F",63 L
same,Vd/F,"800 mg, 800 mg single dose (A5), Fed, Low-fat, read-out: Vz/F(norm)",0.876 L/kg
same,half-life,"800 mg, 800 mg single dose (A5), Fed, Low-fat, read-out: t1/2 (converted)",8.74 h
same,half-life,"800 mg, 400 and 800 mg, high- and low-fat states, read-out: Geometric mean t1/2, range",7.5 to 8.7 h
same,Tmax,"low-fat fed state, read-out: tmax values, range",1 to 4 h
same,Increase in AUC0-t,low-fat fed state (vs fasted),37.1%
same,Increase in AUC0-∞,low-fat fed state (vs fasted),34.7%
same,Increase in Cmax,low-fat fed state (vs fasted),64.4%

# From patent US11925624B2, “Methods of administering anti-fibrotic therapy” (GENENTECH, INC., priority 2016, dated 2024)
